In ChEMBL document CHEMBL1201862, “PubChem BioAssay data set” (2004):
Activity calls are given as the source filed them.

Assays:
[1] = biological target: DNA dC->dU-editing enzyme APOBEC-3A (Homo sapiens, UniProt P31941); assay: SAR analysis of small molecule inhibitors of APOBEC3A DNA Deaminase via a fluorescence-based single-stranded DNA deaminase assay.; format: functional; conditions: read-out: IC50_Mean
[2] = biological target: DNA dC->dU-editing enzyme APOBEC-3G (Homo sapiens, UniProt Q9HC16); assay: inhibition of APOBEC3G ssDNA deamination – biochemical, fluorescence, single-stranded DNA substrate, SAR follow-up (AID 602136); format: functional; conditions: read-out: IC50_Mean
[3] = viability loss in THP-1 monocytes – THP-1 cells, cytotoxicity control for Vif-APOBEC3G degradation inhibitor project, dose response (AID 1117359); format: functional; conditions: THP-1
[4] = biological target: Mitochondrial peptide methionine sulfoxide reductase (Bos taurus, UniProt P54149); assay: Absorbance-based biochemical high throughput dose response assay for activators of Methionine sulfoxide reductase A (MsrA).; format: functional
Streptococcus = assay: GAS UMAA2166 growth inhibition – luminescence, BacTiterGlo, counter-screen for streptokinase expression inhibitor project, dose response (AID 1915); format: functional, organism-based;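 note: potency for reduction of bacterial viability or growth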
Streptokinase A = biological target: T1, Streptokinase A (Streptococcus pyogenes serotype M1, UniProt P10520); assay: viability-normalized secreted streptokinase activity reduction – plasminogen activation absorbance, OD405, dose response (AID 1914); format: functional, Streptococcus pyogenes M1 GAS;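 note: secreted streptokinase activity via plasminogen activation per viability signal from cell pellet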
T1 sequence (P10520 whole entry): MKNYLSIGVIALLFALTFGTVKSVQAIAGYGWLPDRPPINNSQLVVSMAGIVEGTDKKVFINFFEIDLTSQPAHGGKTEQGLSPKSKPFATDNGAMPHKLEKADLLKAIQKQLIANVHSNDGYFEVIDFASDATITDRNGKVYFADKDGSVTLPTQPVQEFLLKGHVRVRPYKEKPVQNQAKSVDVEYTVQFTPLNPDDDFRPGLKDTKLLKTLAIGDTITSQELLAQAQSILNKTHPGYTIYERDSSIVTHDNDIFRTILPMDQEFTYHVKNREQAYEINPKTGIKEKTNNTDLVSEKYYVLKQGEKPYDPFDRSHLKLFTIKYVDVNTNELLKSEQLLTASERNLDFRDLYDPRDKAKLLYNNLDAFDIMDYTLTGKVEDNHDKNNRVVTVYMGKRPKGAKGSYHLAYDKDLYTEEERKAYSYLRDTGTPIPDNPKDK

Interleukin-8 [5] = biological target: T2, Interleukin-8 (Homo sapiens, UniProt P10145); assay: Dose Response confirmation of uHTS small molecule hits for cystic fibrosis induced NFkb Inhibitors in a PAF-induced IL8 counterscreen.; format: functional; conditions: read-out: IC50_Mean
T2 sequence (P10145 whole entry): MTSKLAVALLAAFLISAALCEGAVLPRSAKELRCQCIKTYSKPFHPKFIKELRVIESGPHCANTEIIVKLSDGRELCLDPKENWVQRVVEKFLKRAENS

Interleukin-8 [6] = biological target: T2, Interleukin-8; assay: Dose Response confirmation of uHTS small molecule hits for cystic fibrosis induced NFkb Inhibitors in a TNFa-induced IL8 counterscreen.; format: functional; conditions: read-out: IC50_Mean
[7] = test system: Streptococcus sp. 'group A'; assay: Streptococcus pyogenes SK(-)GAS viability under kanamycin – luminescence, BacTiterGlo, confirmation, counter-screen for streptokinase expression inhibitor project, dose response (AID 1900); format: functional, organism-based
[8] = biological target: Ras and Rab interactor 1/Tyrosine-protein kinase ABL1 (Homo sapiens, UniProt P00519+Q13671); format: functional;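 note: biochemical TR-FRET dose-response test measuring inhibition of binding between Rin1 and Abl proteins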
Steroidogenic factor 1 = Steroidogenic factor 1 (Homo sapiens, UniProt Q13285); assay: Counterscreen for inverse agonists of the liver receptor homolog-1 (LRH-1; NR5A2): Luminescence-based cell-based high throughput dose response assay to identify inverse agonists of the Steroidogenic Factor 1 Nuclear Receptor (SF1; NR5A1).; format: functional
[9] = nonselective StAR promoter luciferase inhibitors – cell-based, luminescence, luciferase reporter, counter-screen for LRH-1 inverse agonist project, dose response (AID 651969); format: functional
[10] = biological target: Nuclear receptor subfamily 5 group A member 2 (Homo sapiens, UniProt O00482); format: functional, cell-based;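 note: HEK293T cells transfected with LRH-1 and a StAR promoter luciferase reporter; potency for inhibitors that lower LRH-1 driven reporter light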
[11] = DRD fibroblast viability loss – cell-based, non-viral oncogenic, luminescence, dose response (AID 1934); format: functional; conditions: Homo sapiens
BJ [12] = assay: BJ-TERT fibroblast viability loss – cell-based, RAS-independent, luminescence, dose response (AID 1933); format: functional; conditions: Homo sapiens
BJ [13] = assay: growth inhibition of engineered Ras-driven BJ cells – cell-based, alamar blue fluorescence, cherrypicked samples, dose response (AID 2631); format: functional; conditions: Homo sapiens;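 note: confirmatory dose-response assay in RAS-dependent BJ fibroblasts engineered with TERT, LT and ST, with cytotoxicity read by fluorescence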
BJ [14] = assay: cells; format: functional, cell-based; conditions: Homo sapiens
BJ [15] = assay: BJ-TERT-LT-ST fibroblast viability loss – cell-based, RAS-independent, luminescence, dose response (AID 1935); format: functional; conditions: Homo sapiens;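 note: BJ fibroblasts immortalized with TERT plus LT and ST oncogenes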
[16] = biological target: T3, Oxysterols receptor LXR-beta (Homo sapiens, UniProt P55055); format: functional, cell-based;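 note: Cell-based luminescence dose-response assay of agonist activity at LXR, run as a confirmatory counterscreen to a daf-12 agonist screen; HEK293 cells with Gal4-LXR fusion and GAL4-driven luciferase reporter; agonist potency from rising luciferase signal of a Gal4-LXR reporter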
T3 sequence (P55055 whole entry): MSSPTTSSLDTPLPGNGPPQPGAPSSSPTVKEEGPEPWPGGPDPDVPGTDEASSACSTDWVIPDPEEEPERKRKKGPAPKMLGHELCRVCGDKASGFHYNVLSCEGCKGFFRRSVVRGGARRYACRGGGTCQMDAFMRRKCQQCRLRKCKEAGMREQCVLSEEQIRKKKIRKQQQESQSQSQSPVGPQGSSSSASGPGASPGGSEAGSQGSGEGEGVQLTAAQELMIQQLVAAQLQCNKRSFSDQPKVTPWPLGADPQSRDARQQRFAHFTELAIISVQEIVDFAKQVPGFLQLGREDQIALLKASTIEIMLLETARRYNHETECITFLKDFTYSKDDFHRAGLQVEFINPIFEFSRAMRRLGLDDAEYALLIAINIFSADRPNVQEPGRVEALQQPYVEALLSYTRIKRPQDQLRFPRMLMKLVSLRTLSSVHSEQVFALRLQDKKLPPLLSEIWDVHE

[17] = biological target: T4, Heat shock factor protein 1 (Mus musculus, UniProt P38532); assay: decrease of HSF1-responsive luciferase luminescence – cell-based, NIH3T3, dose retest, confirmation (AID 2382); format: functional;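 note: NIH3T3 fibroblasts with HSF1-driven luciferase reporter stressed by proteasome inhibitor MG132; luminescence from HSF1-driven luciferase expression after 8 hours of MG132 stress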
T4 sequence (P38532 whole entry): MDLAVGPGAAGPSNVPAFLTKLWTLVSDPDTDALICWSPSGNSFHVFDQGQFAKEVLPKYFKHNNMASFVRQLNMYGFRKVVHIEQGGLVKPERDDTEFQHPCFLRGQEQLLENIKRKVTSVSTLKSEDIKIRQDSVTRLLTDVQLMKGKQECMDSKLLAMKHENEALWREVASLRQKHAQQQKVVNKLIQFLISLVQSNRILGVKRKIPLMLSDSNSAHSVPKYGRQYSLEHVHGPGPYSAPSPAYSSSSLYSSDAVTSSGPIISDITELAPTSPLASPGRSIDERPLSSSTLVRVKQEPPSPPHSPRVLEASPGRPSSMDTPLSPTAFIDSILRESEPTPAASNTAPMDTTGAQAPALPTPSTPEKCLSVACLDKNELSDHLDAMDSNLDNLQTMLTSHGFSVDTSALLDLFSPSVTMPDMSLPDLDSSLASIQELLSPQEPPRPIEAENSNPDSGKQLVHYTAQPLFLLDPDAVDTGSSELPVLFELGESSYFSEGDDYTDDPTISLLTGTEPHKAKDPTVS

[18] = bead-based luminescence quenchers, dual-tagged ARNT – biochemical, AlphaScreen, cherry-pick, artefact control for ARNT-TACC3 interaction inhibitor project, dose response (AID 651705); format: functional;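 note: AlphaScreen bead proximity signal that flags compounds interfering with the detection technology; potency reflects signal decrease which marks the compound as an assay artifact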
[19] = inhibition of ARNT PAS-B/TACC3 complex formation – biochemical, AlphaScreen, cherry-picked samples, confirmation (AID 651703); format: functional, Homo sapiens;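 note: His-tagged ARNT PAS-B domain paired with GST-TACC3 E629A dimer coactivator fragment; potency of inhibitors that break up the complex and lower AlphaScreen signal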

Chain of DNA dC->dU-editing enzyme APOBEC-3A (P31941 whole entry): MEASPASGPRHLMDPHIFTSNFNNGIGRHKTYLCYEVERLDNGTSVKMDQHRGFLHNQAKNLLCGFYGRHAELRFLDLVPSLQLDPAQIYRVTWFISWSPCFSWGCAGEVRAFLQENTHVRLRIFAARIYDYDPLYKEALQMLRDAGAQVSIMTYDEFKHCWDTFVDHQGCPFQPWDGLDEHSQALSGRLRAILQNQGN
Chain of DNA dC->dU-editing enzyme APOBEC-3G (Q9HC16 whole entry): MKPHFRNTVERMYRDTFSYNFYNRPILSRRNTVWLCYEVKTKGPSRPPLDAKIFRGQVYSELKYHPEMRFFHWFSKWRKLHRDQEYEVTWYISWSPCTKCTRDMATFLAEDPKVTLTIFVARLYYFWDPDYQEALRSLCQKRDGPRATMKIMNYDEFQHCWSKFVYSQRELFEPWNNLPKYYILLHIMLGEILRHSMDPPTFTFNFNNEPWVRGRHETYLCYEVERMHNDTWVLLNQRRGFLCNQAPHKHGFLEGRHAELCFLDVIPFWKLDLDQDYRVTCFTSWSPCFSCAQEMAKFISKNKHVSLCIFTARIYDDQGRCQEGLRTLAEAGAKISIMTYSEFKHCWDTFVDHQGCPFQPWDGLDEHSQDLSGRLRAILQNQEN
Chain of Nuclear receptor subfamily 5 group A member 2 (O00482 whole entry): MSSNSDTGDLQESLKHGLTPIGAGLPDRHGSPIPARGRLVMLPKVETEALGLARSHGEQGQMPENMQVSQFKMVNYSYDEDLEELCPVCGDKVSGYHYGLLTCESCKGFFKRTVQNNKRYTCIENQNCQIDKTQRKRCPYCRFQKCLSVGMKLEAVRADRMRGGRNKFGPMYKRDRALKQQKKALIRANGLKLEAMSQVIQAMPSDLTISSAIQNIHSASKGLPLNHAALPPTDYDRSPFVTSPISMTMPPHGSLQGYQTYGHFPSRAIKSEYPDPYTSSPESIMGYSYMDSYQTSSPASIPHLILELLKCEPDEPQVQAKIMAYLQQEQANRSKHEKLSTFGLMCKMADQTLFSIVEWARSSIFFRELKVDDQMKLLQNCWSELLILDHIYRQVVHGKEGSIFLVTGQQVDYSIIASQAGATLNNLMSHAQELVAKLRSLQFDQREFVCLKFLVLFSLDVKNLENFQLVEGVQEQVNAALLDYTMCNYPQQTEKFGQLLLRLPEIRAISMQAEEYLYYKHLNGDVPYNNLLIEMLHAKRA
Chain of Steroidogenic factor 1 (Q13285 whole entry): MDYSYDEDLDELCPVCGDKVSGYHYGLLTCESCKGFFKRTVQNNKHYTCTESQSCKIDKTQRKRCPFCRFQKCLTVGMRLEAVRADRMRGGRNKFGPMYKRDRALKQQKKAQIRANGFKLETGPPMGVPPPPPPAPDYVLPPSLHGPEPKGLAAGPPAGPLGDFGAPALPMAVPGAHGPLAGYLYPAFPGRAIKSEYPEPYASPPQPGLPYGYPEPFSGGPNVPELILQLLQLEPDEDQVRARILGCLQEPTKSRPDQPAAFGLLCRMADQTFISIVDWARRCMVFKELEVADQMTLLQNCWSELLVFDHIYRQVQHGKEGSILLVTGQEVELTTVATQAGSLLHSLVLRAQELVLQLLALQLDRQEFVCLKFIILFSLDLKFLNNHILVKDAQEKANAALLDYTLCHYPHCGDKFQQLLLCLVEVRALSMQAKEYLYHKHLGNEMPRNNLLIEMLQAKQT
Chain of Mitochondrial peptide methionine sulfoxide reductase (P54149 whole entry): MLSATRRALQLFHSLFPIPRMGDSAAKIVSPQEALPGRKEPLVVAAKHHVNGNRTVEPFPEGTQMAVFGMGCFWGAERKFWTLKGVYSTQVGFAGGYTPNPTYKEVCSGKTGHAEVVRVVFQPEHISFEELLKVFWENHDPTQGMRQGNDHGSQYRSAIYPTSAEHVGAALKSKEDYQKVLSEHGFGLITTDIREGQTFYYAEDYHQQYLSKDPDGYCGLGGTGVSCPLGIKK
Chain of Ras and Rab interactor 1/Tyrosine-protein kinase ABL1 (P00519 whole entry): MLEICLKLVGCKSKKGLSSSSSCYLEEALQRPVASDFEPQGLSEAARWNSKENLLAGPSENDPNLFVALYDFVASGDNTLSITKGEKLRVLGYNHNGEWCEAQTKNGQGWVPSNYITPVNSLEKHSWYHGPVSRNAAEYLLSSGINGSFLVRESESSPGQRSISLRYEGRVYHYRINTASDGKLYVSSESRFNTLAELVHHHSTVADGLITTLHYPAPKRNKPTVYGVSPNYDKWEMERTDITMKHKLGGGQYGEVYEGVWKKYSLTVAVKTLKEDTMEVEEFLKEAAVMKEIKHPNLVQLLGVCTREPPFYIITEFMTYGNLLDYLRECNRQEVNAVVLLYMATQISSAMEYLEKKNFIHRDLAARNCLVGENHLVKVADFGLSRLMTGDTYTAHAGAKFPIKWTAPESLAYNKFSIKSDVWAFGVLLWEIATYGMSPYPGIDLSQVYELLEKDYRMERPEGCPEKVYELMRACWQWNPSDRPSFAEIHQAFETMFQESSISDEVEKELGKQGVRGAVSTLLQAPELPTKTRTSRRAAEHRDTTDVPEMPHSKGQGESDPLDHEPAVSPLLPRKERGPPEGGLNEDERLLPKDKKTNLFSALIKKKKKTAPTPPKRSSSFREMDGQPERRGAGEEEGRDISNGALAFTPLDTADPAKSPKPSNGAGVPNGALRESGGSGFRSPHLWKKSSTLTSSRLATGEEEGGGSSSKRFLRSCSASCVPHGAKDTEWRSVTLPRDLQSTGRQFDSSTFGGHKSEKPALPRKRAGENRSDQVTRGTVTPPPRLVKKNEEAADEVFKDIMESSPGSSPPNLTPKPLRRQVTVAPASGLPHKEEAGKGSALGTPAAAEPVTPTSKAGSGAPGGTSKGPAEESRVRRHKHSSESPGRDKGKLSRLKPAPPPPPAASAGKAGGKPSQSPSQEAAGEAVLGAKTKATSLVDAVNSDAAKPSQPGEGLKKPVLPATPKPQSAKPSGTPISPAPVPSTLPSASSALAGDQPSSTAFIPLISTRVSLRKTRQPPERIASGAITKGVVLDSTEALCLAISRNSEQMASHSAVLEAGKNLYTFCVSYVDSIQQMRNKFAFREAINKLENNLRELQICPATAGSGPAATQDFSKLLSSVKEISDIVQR
Chain of Ras and Rab interactor 1/Tyrosine-protein kinase ABL1 (Q13671 whole entry): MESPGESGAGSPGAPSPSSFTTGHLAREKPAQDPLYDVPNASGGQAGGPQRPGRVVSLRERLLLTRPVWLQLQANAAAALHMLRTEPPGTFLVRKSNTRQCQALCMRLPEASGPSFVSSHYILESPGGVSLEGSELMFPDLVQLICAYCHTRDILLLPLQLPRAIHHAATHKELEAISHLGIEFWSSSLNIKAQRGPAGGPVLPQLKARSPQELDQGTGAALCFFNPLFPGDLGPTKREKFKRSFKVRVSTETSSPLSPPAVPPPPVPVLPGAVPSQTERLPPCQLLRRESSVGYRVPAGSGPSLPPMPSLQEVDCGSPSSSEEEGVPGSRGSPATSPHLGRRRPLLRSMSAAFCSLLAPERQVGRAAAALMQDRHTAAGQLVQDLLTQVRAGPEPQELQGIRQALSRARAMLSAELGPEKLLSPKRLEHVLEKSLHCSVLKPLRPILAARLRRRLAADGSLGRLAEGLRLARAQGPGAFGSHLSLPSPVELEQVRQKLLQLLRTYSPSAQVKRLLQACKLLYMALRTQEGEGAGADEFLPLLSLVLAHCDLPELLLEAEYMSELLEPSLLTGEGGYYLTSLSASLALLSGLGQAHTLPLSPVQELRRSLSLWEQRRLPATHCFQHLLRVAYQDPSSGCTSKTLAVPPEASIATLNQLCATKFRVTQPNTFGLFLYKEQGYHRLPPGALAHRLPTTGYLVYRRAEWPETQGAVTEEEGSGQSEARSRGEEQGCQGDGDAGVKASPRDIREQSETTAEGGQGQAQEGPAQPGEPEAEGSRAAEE

In the case of `O=C(CSc1nnc2scc(-c3ccccc3)n12)Nc1ccccc1F`, the IC50 [1] was > 99 µM (inactive) and the IC50 [2] was > 99 µM (inactive).

In the case of `O=[N+]([O-])c1cc(Br)c(O)c(/C=N/c2ccc(N3CCOCC3)cc2)c1`, the CC50 [3] was > 40 µM (active) and the EC50 [4] was > 104 µM (inactive).

With `COc1ccc(-c2c[nH]nc2-c2ccc(OC)cc2)cc1` the EC50 (Streptococcus) was 8.74 µM (active), the EC50 (Streptokinase A) was > 150 µM (not active) and the IC50 (Interleukin-8 [5]) was 5.39 µM (active). The IC50 (Interleukin-8 [6]) was 3.57 µM (active) and the EC50 [7] was 3.33 µM (active).

For `CN1CCN(C(=O)CSc2nc(-c3ccncc3)ccc2C#N)CC1`, the IC50 [8] was 39 µM (inactive).

For `NS(=O)(=O)c1ccc(CCNC(=O)COc2ccc3c4c(c(=O)oc3c2)CCC4)cc1`, the IC50 (Steroidogenic factor 1) was 35.9 µM (inactive), the IC50 [9] was 35.9 µM (inactive) and the IC50 [10] was 35.9 µM (inactive).

With `COc1cccc(NC(=O)n2ncc3c(C)cccc32)c1` the EC50 [11] was 6.62 µM (active), the EC50 (BJ [12]) was 11.5 µM (active) and the EC50 (BJ [13]) was > 133 µM (inactive). For the same compound, the EC50 (BJ [14]) was 8.05 µM (active), the EC50 (cells) was > 67.5 µM (inactive) and the EC50 (BJ [15]) was 18.2 µM (active). For the same compound, the EC50 [16] was > 67.5 µM (inactive).

For `CCOc1ccccc1Nc1nc(Cl)nc(Nc2ccccc2OCC)n1`, the IC50 [1] was > 99 µM (inactive) and the IC50 [2] was > 99 µM (inactive).

In the case of `O=C(CN(Cc1ccccc1Cl)S(=O)(=O)c1ccc(Cl)cc1)N/N=C/c1ccc(C(=O)O)cc1`, the EC50 [17] was > 195 µM (not active), the AC50 [18] was 84 µM (active) and the AC50 [19] was 78.3 µM (active).
